Legend:
[1] = system: HIV-1 latently infected ACH-2 cells; experiment: Intracellular HIV-1 p24 by flow cytometry in ACH-2 cells; type: cell-based
Method: (§1) The reactivation of HIV-1 from latently infected cells was determined by intracellular p24 protein expression and quantification of p24 antigen in the supernatant (ACH-2 and U1 cells), or by changes in intracellular green fluorescent protein (GFP) expression (J-Lat 10.6 cells). J-Lat ([Jordan et al., 2003]), ACH-2, or U1 cells (5 × 10^5 cells/ml) were seeded in 96-well plates and incubated with different drug concentrations for 24 h to collect the cells. The supernatant was collected after 48 h. The increase in supernatant p24 antigen levels was measured using a Lumipulse G1200 (FUJIREBIO, Tokyo, Japan). J-Lat cells (5 × 10^5 cells/ml) were placed in 48-well plates and incubated with different drug concentrations for 24 h. Intracellular p24 protein expression and GFP-positive cells were analyzed by flow cytometry.
(§2) The amount of intracellular HIV-1 p24 and the active form of caspase-3 were determined by flow cytometry, as previously described ([Matsuda et al., 2015], [2019]). In brief, ACH-2 and U1 cells (2.5 × 10^5 cells/ml) were fixed with 1% paraformaldehyde/PBS for 20 min and permeabilized with Flow Cytometry Perm Buffer (TONBO Biosciences, San Diego, CA, United States). After 5 min of incubation at room temperature, the cells were stained with FITC anti-HIV-1 p24 (24-4) monoclonal antibody (mAb; Santa Cruz Biotechnology, Dallas, TX, United States) or Alexa Fluor 647-conjugated anti-active caspase-3 (C92-605) mAb (BD Pharmingen, San Diego, CA, United States) for 30 min on ice. For T cell activation and exhaustion marker staining, PBMCs from healthy donors separated by the above density gradient centrifugation method were incubated with fixable viability stain Ghost Dye 780 (TONBO Biosciences) for 30 min on ice. The cells were then stained with Brilliant Violet 510 anti-human CD3 (UCHT1) mAb (BioLegend), FITC anti-human CD4 (RPA-T4) mAb (TONBO Biosciences), PE-Cy7 anti-human CD8a (RPA-T8) mAb (TONBO Biosciences), PerCP-Cy5.5 anti-human CD38 (HB-7) mAb (BioLegend), PE anti-human CD69 (FN50) mAb (BioLegend), or Alexa Fluor 647 anti-human CD279/PD-1 (EH12.1) mAb (BD Biosciences, San Jose, CA, United States) for 30 min on ice. Next, the cells were analyzed using BD FACSVerse (BD Biosciences). In the analysis, unstained cells were used as a negative control to set the gating for each experiment. The collected data were analyzed using FlowJo software (Tree Star, San Carlos, CA, United States).

[2] = system: HIV-1 latently infected U1 cells; experiment: Intracellular HIV-1 p24 by flow cytometry in U1 cells; type: cell-based
Method: as §1, §2

[3] = system: HIV-1 latently infected U1 cells; experiment: HIV-1 latency reversal, p24 antigen in supernatant, U1 cells; type: cell-based; details: Human immunodeficiency virus 1, 48 h
Method: as §1

J-Lat 10.6 cells = type: cell-based, HIV-1; details: J-Lat 10.6 cells, 24 h
Method: The reactivation of HIV-1 from latently infected cells was determined by intracellular p24 protein expression and quantification of p24 antigen in the supernatant (ACH-2 and U1 cells), or by changes in intracellular green fluorescent protein (GFP) expression (J-Lat 10.6 cells). […] The supernatant was collected after 48 h. The increase in supernatant p24 antigen levels was measured using a Lumipulse G1200 (FUJIREBIO, Tokyo, Japan). […] Intracellular p24 protein expression and GFP-positive cells were analyzed by flow cytometry.
Differences between groups were analyzed for statistical significance using unpaired t-tests. Statistical significance was set at p < 0.05. Statistical analyses were performed using GraphPad Prism version 8 (GraphPad Software, La Jolla, CA, United States). CompuSyn software, based on the quantitative analysis of dose-effect relationships between multiple drugs by Chou and Talalay, was utilized to determine the synergism or antagonism of drug combinations ([Chou and Talalay, 1984]). To confirm synergy, this software calculates combination index (CI) values, which further assist in determining the nature of the combination compared to single drug effects. A CI value <1 indicates synergistic effects.

U937 cells = experiment: Active caspase-3 by flow cytometry in U937 cells; type: cell-based; details: 10 μM, 24 h
U1 cells = experiment: Active caspase-3 by flow cytometry in U1 cells; type: cell-based; details: 10 µM, 24 h
Method: as §2, with “The cells were then stained with Brilliant Violet 510 anti-human CD3 (UCHT1) mAb (BioLegend), FITC anti-human CD4 (RPA-T4) mAb (TONBO Biosciences), PE-Cy7 anti-human CD8a (RPA-T8) mAb (TONBO Biosciences), PerCP-Cy5.5 anti-human CD38 (HB-7) mAb (BioLegend), PE anti-human CD69 (FN50) mAb (BioLegend), or Alexa Fluor 647 anti-human CD279/PD-1 (EH12.1) mAb (BD Biosciences, San Jose, CA, United States) for 30 min on ice.” left out, “In the analysis, unstained cells were used as a negative control to set the gating for each experiment.” left out

[4] = system: HIV-1 latently infected ACH-2 cells; experiment: HIV-1 latency reversal, p24 antigen in supernatant, ACH-2 cells; type: cell-based; details: Human immunodeficiency virus 1, ACH-2, 48 h
Method: as §1

[5] = system: CD8+PD1+CD38+ primary T cells; experiment: Immune exhaustion markers, CD8+PD1+CD38+ primary T cells; type: cell-based, human; details: PBMCs from healthy donors, 24 h
Method: as §2

[6] = Cytotoxicity of LRAs in A3.01 cells; type: cell-based; details: human, day 7
Method: (§3) To determine the cytotoxicity of LRAs, A3.01, and U937 cells (5 × 10^5 cells/ml), which are the parental cells for ACH-2 and U1 cells, respectively, were cultured in the presence or absence of LRAs. After 7 days, cell viability was examined using the Cell Counting Kit-8 assay (Dojindo, Kumamoto, Japan) according to the manufacturer’s instructions. The numbers of living cells after drug treatment were measured and compared to those in untreated cells and are presented as a percentage relative to the control.

[7] = Cytotoxicity of LRAs in U937 cells; type: cell-based; details: human, day 7
Method: as §3

[8] = system: HIV-1 in CD4+ T cells from HIV-1-infected individuals; experiment: Ex vivo reactivation, intracellular HIV-1 mRNA in primary CD4+ T cells from HIV-1-infected individuals; type: cell-based; details: 1 μM JQ1, 24 h, seven individuals
Method: Primary cells were isolated from seven HIV-1^+ individuals, and ex vivo reactivation experiments were conducted as previously described ([Matsuda et al., 2019]). In brief, peripheral blood samples were collected from HIV-1-infected participants receiving cART for at least 5 years (Table 1). All subjects maintained a low viral load (<20 copies/ml, except for occasional “blips”) during therapy. CD4^+ T cell counts in peripheral blood samples ranged from 477 to 992 cells/mm^3 (average: 631 cells/mm^3), and plasma viral loads were <20 copies/ml (except for one participant whose viral load was 22 copies/ml) as measured by quantitative PCR (qPCR; COBAS AmpliPrep/COBAS TaqMan HIV-1 Test version 2.0; Roche Diagnostics, Basel, Switzerland) at the time of study enrollment. The Ethics Committee at the National Center for Global Health and Medicine approved this study (NCGM-G-002259-00), and each patient provided written informed consent. […] The number of HIV-1 RNA copies was calculated using a standard curve obtained from serially diluted HIV-1pNL4-3 plasmid, and normalized values [HIV-1 RNA copies/input RNA (ng)] for each drug were compared to those without drug treatment. The relative increase in HIV-1 RNA levels in the presence of each drug or combination was then determined.

BALB/c mice = experiment: In vivo acute toxicity (24 h) in BALB/c mice
Text: BALB/c mice were purchased from Charles River Laboratories Japan, Inc. (Yokohama, Japan). Female mice at 5 weeks of age were used for the experiments. The mice were housed and monitored in our animal research facility according to the institutional guidelines. All experimental procedures and protocols were approved by the Institutional Animal Care and Use Committee of Kumamoto University.

[9] = PMA control, concentration not given

| SMILES | EC50 [3] | intracellular p24-positive live cells (flow cytometry quadrant) ([1]; 0.1 µM, 24 h) | intracellular p24-positive live cells (flow cytometry quadrant) ([1]; 1 µM, 24 h) | intracellular p24-positive live cells (flow cytometry quadrant) ([1]; 10 µM, 24 h) | intracellular p24-positive live cells (flow cytometry quadrant) ([2]; 0.1 µM, 24 h) | intracellular p24-positive live cells (flow cytometry quadrant) ([2]; 1 µM, 24 h) | intracellular p24-positive live cells (flow cytometry quadrant) ([2]; 10 µM, 24 h) | EC50 [4] | increase in CD8+ PD1+ CD38+ T cells [5] | CC50 at 7 days [6] | CC50 at 7 days [7] | also measured |
| --- | --- | --- | --- | --- | --- | --- | --- | --- | --- | --- | --- | --- |
| CCCCCCCCCCCCCC(=O)O[C@@H]1[C@@H](C)[C@@]2(O)[C@@H](C=C(CO)C[C@]3(O)C(=O)C(C)=C[C@@H]23)[C@@H]2C(C)(C)[C@]12OC(C)=O [PMA, Phorbol 12-myristate 13-acetate, reference compound] | – | – | – | – | – | – | – | – | – | – | – | intracellular p24-positive live cells (flow cytometry quadrant) [1, 9]: 77.8; intracellular p24-positive live cells (flow cytometry quadrant) [2, 9]: 42.2 |
| CC(=O)O[C@@]12C[C@@H](C)[C@@]3(O)[C@@H](C=C(CO)C[C@]4(O)C(=O)C(C)=C[C@@H]34)[C@@H]1C2(C)C [Prostratin, reference compound] | 0.32 µM | 4.99 | 68.7 | 76.7 | 0.333 | 33.5 | 40.7 | 0.33 µM | significant increase | > 100 µM | > 100 µM | LRA activity in the presence of 10% mouse serum versus 10% FBS (J-Lat 10.6 cells; GFP-positive cells): did not change; caspase-3 activation (U937 cells): 18.8%; caspase-3 activation (U1 cells): 19.1% |
| Cc1sc2c(c1C)C(c1ccc(Cl)cc1)=N[C@@H](CC(=O)OC(C)(C)C)c1nnc(C)n1-2 [JQ1, reference compound] | – | – | – | – | – | – | – | – | – | – | – | HIV-1 mRNA compared to no drug control [8]: 2.25 fold; number of GFP+ cells (J-Lat 10.6 cells; 100–400 nM): 12.6% |
| CCCCCCCCCC(=O)OCC1(CO)C/C(=C\CC(C(C)C)C(C)C)C(=O)O1 (centres unmarked) [YOK058E] | 8.24 µM | 0.629 | 3.24 | 67.2 | 0.208 | 0.197 | 13.3 | > 10 µM | – | > 100 µM | > 100 µM | – |
| CCCCCCCCCC(=O)OCC1(CO)CC(=C(C)C)C(=O)O1 (centres unmarked) [HTA14-472] | > 10 µM | 0.714 | 0.526 | 17.4 | 0.28 | 0.262 | 2.98 | > 10 µM | – | > 100 µM | > 100 µM | – |
| C/C=C(/C)C(=O)O[C@H]1C(C)=C[C@]23C(=O)[C@@H](C=C(CO)[C@@H](O)[C@]12O)[C@H]1[C@@H](C[C@H]3C)C1(C)C [PEP005] | – | – | – | – | – | – | – | – | significant increase | – | – | concentration at which acute toxicity started (BALB/c mice; intraperitoneal): 300 µg/kg; survival (BALB/c mice; intraperitoneal, 1,000 μg/kg): all tested mice died |

Reference: article PMC8010149, “A Therapeutic Strategy to Combat HIV-1 Latently Infected Cells With a Combination of Latency-Reversing Agents Containing DAG-Lactone PKC Activators” (Frontiers in Microbiology, 2021)
